# Source: patent US20060035977A1, “Uses of acylated aminopropanediols and sulphur and nitrogen analogues of same f” (Gentif, priority 2003, published 2006)
# Key:
# LDL = experiment: Protection against LDL oxidation induced by copper (conjugated diene formation); assay type: biochemical; conditions: for shift in the lag phase latency (delay): LDL oxidation induced by copper, conjugated dienes at 234 nm, relative to control (FIG. 4A); for antioxidant activity on LDL oxidation induced by copper: conjugated diene formation, 30° C., 8 hours
# Description: LDL were prepared as described in Lebeau et al. (Lebeau, Furman et al. 2000). The solutions of the test compounds were prepared at 10^−2 M in ethanol and diluted in PBS so that the final concentration ranged from 0.1 to 100 μM with a total ethanol concentration of 1% (VN).
# Before oxidation, EDTA was removed from the LDL preparation by dialysis. The oxidation reaction was then carried out at 30° C. by adding 100 μl of 16.6 μM CuSO4 to 800 μl of LDL (125 μg protein/ml) and 100 μl of a test compound solution. The formation of dienes, the species to be followed, was measured by the optical density at 234 nm in the samples treated with the compounds in the presence or absence of copper. Optical density at 234 nm was measured every 10 minutes for 8 hours on a thermostated spectrophotometer (Kontron Uvikon 930). The analyses were carried out in triplicate. A compound was considered to have antioxidant activity when it shifted the lag phase latency relative to the control sample. […] FIG. 4 presents an example of the results obtained with the inventive compounds.
# Gal4/PPARα = target: T1, Gal4/PPARα (Homo sapiens, UniProt Q07869); experiment: Gal4/PPARα transactivation system in HepG2 cells (luciferase reporter); conditions: 24 h, HepG2 cells transfected with Gal4/PPARα plasmids, compound in PC liposomes
# T1 sequence (Q07869 239-466 limits assumed): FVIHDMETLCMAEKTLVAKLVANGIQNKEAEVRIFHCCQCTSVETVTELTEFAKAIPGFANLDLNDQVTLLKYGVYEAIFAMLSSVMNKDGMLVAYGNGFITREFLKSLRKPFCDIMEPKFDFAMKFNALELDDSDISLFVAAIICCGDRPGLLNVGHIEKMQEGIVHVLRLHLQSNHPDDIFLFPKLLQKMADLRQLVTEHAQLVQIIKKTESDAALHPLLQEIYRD
# Description: PPAR activation was tested in vitro in RK13 fibroblast cell lines or in a hematocyte line HepG2 by measuring the transcriptional activity of chimeras composed of the DNA binding domain of the yeast gal4 transcription factor and the ligand binding domain of the different PPARs. The example below is given for HepG2 cells.
# HepG2 cells were from ECACC (Porton Down, UK) and were grown in DMEM medium supplemented with 10% (V/V) fetal calf serum, 100 U/ml penicillin (Gibco, Paisley, UK) and 2 mM L-glutamine (Gibco, Paisley, UK). The culture medium was changed every two days. Cells were kept at 37° C. in a humidified 95% air/5% CO2 atmosphere.
# HepG2 cells were seeded in 24-well culture dishes at 5×10^4 cells/well and transfected for 2 hours with the reporter plasmid pG5TkpGL3 (50 ng/well), the expression vectors pGal4-f, pGal4-mPPARα, pGal4-hPPARα, pGal4-hPPARγ, or pGal4-hPPARβ (100 ng/well) and the transfection efficiency control vector pRL-CMV (1 ng/well) according to the previously described protocol (Raspe, Madsen et al. 1999), then incubated for 36 hours with the test compounds. At the end of the experiment, the cells were lysed (Gibco, Paisley, UK) and luciferase activity was determined with a Dual-Luciferase™ Reporter Assay System kit (Promega, Madison, Wisc., USA) according to the supplier's instructions. The protein content of the cell extracts was then measured with the Bio-Rad Protein Assay kit (Bio-Rad, Munich, Germany) as directed by the supplier.
# The results are expressed as the induction factor (luminescent signal of treated cells divided by luminescent signal of untreated cells) after the different treatments.
# [1] = Effects on plasma lipids in rats in vivo; conditions: Sprague-Dawley rats, 300 mg/kg/day, intragastric gavage, once a day for 15 days
# Description: Sprague-Dawley rats weighing 200 to 230 g (Charles River, L'Arbresle, France) were housed in a 12-hour light/dark cycle at a constant temperature of 20±3° C. After a 1-week acclimatization period, rats were weighed and distributed into groups of 8 animals selected such that the distribution of plasma cholesterol and triglyceride levels was uniform. The test compounds were suspended in a vehicle (0.5% carboxymethylcellulose (CMC) and 0.1% Tween) and administered by intragastric gavage at the indicated doses, once a day for 15 days. Animals had access to food and water ad libitum. At the end of the experiments, animals were weighed and sacrificed under anesthesia after a 5-hour fast. Blood was collected on EDTA. Plasma was isolated by centrifugation at 3000 rpm for 20 minutes. […]
# Lipid concentrations in plasma (total cholesterol and triglycerides) were determined by a […] assay (Bio-Mérieux, Marcy I'Etoile, France) according to the supplier's instructions. Plasma concentrations of apolipoproteins AII, AI and CIII were determined as previously described (Raspe, Madsen et al. 1999) and (Asset, Staels et al. 1999).
# To separate the lipoproteins according to size, 300 μl of plasma were loaded on a Sepharose 6HR 10/30 column (Pharmacia, Uppsala, Sweden) and eluted at a constant flow rate (0.2 ml/minute) in PBS (pH 7.2). Optical density of the eluent was recorded at 280 nm. […]
Molecule,melting point,antioxidant activity on LDL oxidation induced by copper (LDL),induction factor (luminescent signal of treated cells divided by luminescent signal of untreated cells) (Gal4/PPARα; 5 μM),induction factor (luminescent signal of treated cells divided by luminescent signal of untreated cells) (Gal4/PPARα; 15 μM),induction factor (luminescent signal of treated cells divided by luminescent signal of untreated cells) (Gal4/PPARα; 50 μM),induction factor (luminescent signal of treated cells divided by luminescent signal of untreated cells) (Gal4/PPARα; 100 μM),other results
CCCCCCCCCCCCCCCC(=S)OC(CN)CN.Cl.Cl,224 °C (dec.),–,–,–,–,–,–
CCCCCCCCCCCCCCCC(=S)SC(CN)CN.Cl.Cl,181 °C (dec.),–,–,–,–,–,–
"1,2-(dipalmitoyloxy)-3-tetradecylthioacetylaminopropane [Ex 4]",–,exhibit intrinsic antioxidant properties,–,–,–,–,shift in the lag phase latency (delay) (LDL): 34.3%
"1,2-(ditetradecylthioacetyloxy)-3-palmitoylaminopropane [Ex 6]",–,exhibit intrinsic antioxidant properties,1.1 fold,2.2 fold,9.6 fold,14.5 fold,–
"1,2-(ditetradecylthioacetyloxy)-3-tetradecylthioacetylaminopropane [Ex 5]",–,exhibit intrinsic antioxidant properties,1.2 fold,2.5 fold,7 fold,10.5 fold,–
"CCCCCCCCCCCCCCSCC(=O)NCC(O)CO (stereo not drawn) [Ex 2, 3-(tetradecylthioacetylamino)propane-1,2-diol]",–,exhibit intrinsic antioxidant properties,1.5 fold,7.7 fold,19.8 fold,19.2 fold,shift in the lag phase latency (delay) (LDL): 13.4%
"CCCCCCCCCCCCCCCC(=O)NCC(O)CO (stereo not drawn) [Ex 3, 3-(palmitoylamino)propane-1,2-diol]",104 to 108 °C,–,–,–,–,–,–
"CCCCCCCCCCCCCCSCC(=O)NCC(CNC(=O)CSCCCCCCCCCCCCCC)OC(=O)CSCCCCCCCCCCCCCC [Ex 11, 1,3-ditetradecylthioacetylamino-2-(tetradecylthioacetyloxy)propane]",–,exhibit intrinsic antioxidant properties,–,–,–,–,"total plasma cholesterol ([1]; D0, D7, D14 (FIG. 3A)): lowered; plasma triglycerides ([1]; D0, D7, D14 (FIG. 3B)): lowered"
